Common to all, as to assay type: functional
Assay [1] relates to Syphacia obvelata. The assay can be described thus: Anthelmintic activity against Syphacia obvelata infected in mouse assessed as reduction in worm burden at 100 mg/kg, po bid for 5 days. The conditions noted are these: 120 h.
The test system of assay [2] is Syphacia obvelata. As to the kind of experiment: Anthelmintic activity against Syphacia obvelata infected in mouse assessed as reduction in worm burden at 50 mg/kg, po bid for 5 days. The conditions noted are these: for inhibition in vivo at 50 mg/kg: 120 h.
Assay [3] concerns Syphacia obvelata. The assay can be described thus: Anthelmintic activity against Syphacia obvelata infected in mouse assessed as reduction in worm burden at 25 mg/kg, po bid for 5 days. The settings on record: for inhibition in vivo at 25 mg/kg: 120 h.
Assay [4] has as its system Syphacia obvelata. The assay can be described thus: Anthelmintic activity against Syphacia obvelata infected in mouse assessed as reduction in worm burden at 300 mg/kg, po bid for 5 days. The conditions noted are these: 120 h.
The subject of assay [5] is Syphacia obvelata. The assay can be described thus: Anthelmintic activity against Syphacia obvelata infected in mouse assessed as reduction in worm burden at 10 mg/kg, po bid for 5 days.

This passage reports inhibition in vivo and inhibition results from ChEMBL document CHEMBL3272209, “Anthelmintic 1-cinnamamido-2,4-imidazolidinediones” (1976).

Activity calls are given as the source filed them. The rule behind the calls is not given here.

Consider `O=C(/C=C/c1ccc(F)cc1)NN1CC(=O)NC1=O`, for which the inhibition in vivo at 100 mg/kg in the assay on Syphacia obvelata [1] was determined as 69%. The inhibition in vivo at 50 mg/kg in the assay on Syphacia obvelata [2] turned out to be 67%. Also, in the assay with Syphacia obvelata [3], the inhibition entry is “inactive”. Besides, the inhibition in vivo at 300 mg/kg in the assay on Syphacia obvelata [4] turned out to be 100%.

Consider `O=C(/C=C/c1ccc(Cl)c(C(F)(F)F)c1)NN1CC(=O)NC1=O`, for which, in the assay on Syphacia obvelata [1], the inhibition in vivo at 100 mg/kg was 76%. Besides, in the assay with Syphacia obvelata [2], the inhibition result was “inactive”. Besides, the inhibition in vivo at 300 mg/kg in the assay on Syphacia obvelata [4] worked out at 70%.

Take `N#Cc1ccc(/C=C/C(=O)NN2CC(=O)NC2=O)cc1`: the inhibition in vivo at 100 mg/kg in the assay with Syphacia obvelata [1] was 100%. In the assay with Syphacia obvelata [2], the inhibition in vivo at 50 mg/kg is 100%. The inhibition in vivo at 25 mg/kg in the assay with Syphacia obvelata [3] worked out at 97%. For the same molecule, the inhibition in vivo at 300 mg/kg in the assay with Syphacia obvelata [4] was found to be 100%. Also, the inhibition result with Syphacia obvelata [5] was “inactive”.

As to `Cc1cc(/C=C/C(=O)NN2CC(=O)NC2=O)ccc1Br`, the inhibition in vivo at 100 mg/kg with Syphacia obvelata [1] is 81%. The inhibition result in the assay with Syphacia obvelata [2] was “inactive”. Besides, the inhibition in vivo at 300 mg/kg in the assay with Syphacia obvelata [4] was found to be 100%.

Take `O=C(/C=C/c1ccc(F)c(Cl)c1)NN1CC(=O)NC1=O`: the inhibition in vivo at 100 mg/kg with Syphacia obvelata [1] came to 100%. Also, in the assay on Syphacia obvelata [2], the inhibition in vivo at 50 mg/kg came to 87%. Moreover, the inhibition result in the assay on Syphacia obvelata [3] is “inactive”. Moreover, the inhibition in vivo at 300 mg/kg in the assay with Syphacia obvelata [4] came out at 100%.

Consider `O=C(/C=C/c1ccccc1)NN1CC(=O)NC1=O`, for which the inhibition in vivo at 100 mg/kg in the assay on Syphacia obvelata [1] turned out to be 75%. Also, in the assay with Syphacia obvelata [2], the inhibition entry is “inactive”. In the assay on Syphacia obvelata [4], the inhibition in vivo at 300 mg/kg came to 86%.

As to `O=C(/C=C/c1ccc(Cl)c(Cl)c1)NN1CC(=O)NC1=O`, the inhibition in vivo at 100 mg/kg with Syphacia obvelata [1] was 100%. In addition, the inhibition in vivo at 50 mg/kg with Syphacia obvelata [2] was 100%. In addition, in the assay on Syphacia obvelata [3], the inhibition in vivo at 25 mg/kg is 51%. For the same molecule, the inhibition in vivo at 300 mg/kg with Syphacia obvelata [4] was 100%. Besides, the inhibition entry in the assay on Syphacia obvelata [5] is “inactive”.

With `C1CNCCN1.O=C(O)CCCCC(=O)O`, the inhibition in vivo at 100 mg/kg in the assay with Syphacia obvelata [1] turned out to be 42%. Moreover, the inhibition entry in the assay with Syphacia obvelata [2] was “inactive”. For the same molecule, the inhibition in vivo at 300 mg/kg with Syphacia obvelata [4] amounted to 96%.

Regarding `O=C(/C=C/c1ccc(Cl)cc1)NN1CC(=O)NC1=O`, the inhibition in vivo at 100 mg/kg with Syphacia obvelata [1] amounted to 97%. Also, the inhibition in vivo at 50 mg/kg with Syphacia obvelata [2] is 52%. The inhibition entry with Syphacia obvelata [3] is “inactive”. Moreover, the inhibition in vivo at 300 mg/kg in the assay with Syphacia obvelata [4] was 100%.

In the case of `O=C(/C=C/c1cccc(F)c1)NN1CC(=O)NC1=O`, the inhibition in vivo at 100 mg/kg in the assay on Syphacia obvelata [1] was 77%. Besides, in the assay with Syphacia obvelata [2], the inhibition entry was “inactive”. Also, in the assay with Syphacia obvelata [4], the inhibition in vivo at 300 mg/kg was 100%.

As for `O=C(/C=C/c1ccc2c(c1)OCO2)NN1CC(=O)NC1=O`, the inhibition in vivo at 100 mg/kg in the assay with Syphacia obvelata [1] stood at 88%. Moreover, the inhibition result in the assay on Syphacia obvelata [2] was “inactive”. Besides, in the assay on Syphacia obvelata [4], the inhibition in vivo at 300 mg/kg was found to be 100%.

For the molecule `Cc1ccc(/C=C/C(=O)NN2CC(=O)NC2=O)cc1Cl`, the inhibition in vivo at 100 mg/kg in the assay with Syphacia obvelata [1] amounted to 97%. The inhibition in vivo at 50 mg/kg in the assay on Syphacia obvelata [2] amounted to 100%. Besides, the inhibition in vivo at 25 mg/kg in the assay with Syphacia obvelata [3] worked out at 87%. In addition, in the assay with Syphacia obvelata [4], the inhibition in vivo at 300 mg/kg turned out to be 99%. In the assay with Syphacia obvelata [5] (120 h), the inhibition in vivo at 10 mg/kg came out at 34%.

With `CCc1ccc(/C=C/C(=O)NN2CC(=O)NC2=O)cc1Cl`, the inhibition in vivo at 100 mg/kg with Syphacia obvelata [1] was 87%. Also, the inhibition entry with Syphacia obvelata [2] was “inactive”. In addition, in the assay with Syphacia obvelata [4], the inhibition in vivo at 300 mg/kg amounted to 100%.

For orientation: inhibition in vivo means the relative decrease from the control value, in per cent.
